Laboratory results published in patent publication US20230151065A1, “MULTI-DISULFIDE-BOND LONG-CHAIN PEPTIDE WITH NEURO[…], PHARMACEUTICAL COMPOSITION AND APPLICATION” (priority 2018, published 2023).
Where no end group is shown, it is not given here.

Columns and labels:
[1] = system: PI3K/AKT signaling pathway in cortical neurons after OGD damage; assay: OGD damage of cortical neurons with PI3K inhibitor LY-294002, Western blot of p-AKT and Cleaved caspase-3; assay type: cell-based, SD rat
[2] = system: primary fetal rat hippocampal neurons; assay: Growth of hippocampal neurons, live cell station; assay type: cell-based; details: ABPPk2 100 ng/ml, observed for 48 h
Experimental: (§1) (1) Primary culture of fetal rat hippocampal neurons: after a rat pregnant for 17 days was anesthetized, a fetal rat was taken out under sterile conditions; the brain of the fetal rat was taken out on ice; the hippocampus was carefully taken out under a dissecting microscope; and the blood vessel membranes were removed. 0.125% trypsin/EDTA was digested at 37° C. for 10 min, and the digestion was stopped by adding the DMEM complete medium containing 10% FBS. Cell debris were removed through centrifugal at 1000 rpm for 5 min; the DMEM complete medium was added to resuspend the cells; the cells were gently blown until a single cell suspension was formed; and the cells were inoculated at an appropriate density on a culture plate (dish) pre-coated with polylysine (PLL) and cultured at 37° C., 5% CO2 incubator. After 4 h, the cells were adhered to the wall; the DMEM complete medium was discarded and replaced with neurobasal medium containing different concentrations of ABPPk2 (the concentrations of ABPPk2 were 4 ng/ml, 20 ng/ml and 100 ng/ml); the neurobasal medium containing 10 ng/ml BDNF was used as the positive control group, and neurobasal was used as the negative control group.
(3) Neuron growth was observed by a live cell station: the hippocampal neuron single cell suspension obtained in (1) was inoculated on a culture plate pre-coated with PLL at a cell density of 5×10^5. […]

[3] = system: primary cultured SD fetal rat cortical neurons after OGD damage; assay: OGD damage of cortical neurons, mitochondrial membrane potential (JC-1, flow cytometer); assay type: cell-based; details: OGD 2 h, 24 h reoxygenation; ABPPk2 8, 40, 200 ng/ml; obvious dose-effect relationship
Experimental: The suspension was filtered with a 400-mesh screen, centrifuged at 1000 rpm for 5 min, and blown to form the single cell suspension. DMEM high glucose complete medium (containing 10% fetal bovine serum) was inoculated in a culture dish or culture plate pre-coated with polylysine (PLL) to culture in 5% CO2 incubator with saturated humidity at 37° C. After the cells were cultured for 4 h to adhere to the wall, the cells were cultured with neuron culture medium (neurobasal+2% B27) for 3 d to observe the growth of neurons. The culture medium containing cytarabine (the final concentration of cytarabine was 2.5 μg/ml) was substituted with half quantity to culture for 3d to inhibit the growth of glial cells and miscellaneous cells to obtain purely cultured primary cortical nerve cells. The purity of the cortical neurons was identified by immunocytochemical staining as more than 90%. […]
(5) Effect of ABPPk2 on mitochondrial membrane potential of cortical neurons after OGD damage: cortical neurons were inoculated in a 6-well plate at 1×10^6 cells/ml; 2 ml of cell suspension was added to each well; and the cortical neurons were cultured to the 7th day. […] The mitochondrial membrane potential of the cortical neurons after OGD damage was detected by a JC-1 staining kit and a flow cytometer. […]

[4] = system: primary cultured hippocampal neurons; assay: Synapse formation in hippocampal neurons (SYN/PSD95 staining, PSD95 Western blot); assay type: cell-based, rat; details: treatment with ABPPk2 for 8 d
Experimental: as §1, with “After 4 h, the cells were adhered to the wall; the DMEM complete medium was discarded and replaced with neurobasal medium containing different concentrations of ABPPk2 (the concentrations of ABPPk2 were 4 ng/ml, 20 ng/ml and 100 ng/ml); the neurobasal medium containing 10 ng/ml BDNF was used as the positive control group, and neurobasal was used as the negative control group.” left out
(7) Promotion effect of ABPPk2 on synapse formation in primary cultured hippocampal neurons. […] The field of view was randomly selected and photographed under the laser confocal microscope, and the number of synaptic cristulas on every 100 μm neurites was counted. The effect of ABPPk2 on the expression of PSD95 was analyzed by Western blot. The steps were as follows: the total protein was extracted and the total protein concentration was determined by Bradford method. […]

[5] = after OGD and LY-294002 treatment, ABPPk2 high-dose group
[6] = after OGD damage, vs OGD group, ABPPk2 at high dose, LY-294002 30 min

## Cys-Leu-Glu-Ser-Gly-Thr-Ser-Cys-Ile-Pro-Gly-Ala-Gln-His-Asn-Cys-Cys-Ser-Gly-Val-Cys-Val-Pro-Ile-Val-Thr-Ile-Phe-Tyr-Gly-Val-Cys-Tyr (CLESGTSCIPGAQHNCCSGVCVPIVTIFYGVCY; disulfide (positions not given here); not fully specified (bridges); also: three disulfide bonds, pairing not given here) [ABPPk2, 33 amino acid polypeptide isolated from the extract of Achyranthes bidentata Blume, three pairs of disulfide bonds]
[1]; [5]
  expression of Cleaved caspase-3: significantly down-regulated
  expression of p-AKT: significantly up-regulated
[1]; [6]
  expression of Cleaved caspase-3: significantly down-regulated
  expression of p-AKT: significantly up-regulated
[2]
  growth of hippocampal neurons (live cell station): can promote the growth of the hippocampal neurons and the extension of neurites
[3]
  mitochondrial membrane potential: can alleviate the decline in mitochondrial membrane potential
[4]
  number of the formed synapses: the number of the formed synapses can be significantly increased
[4]; Western blot
  expression of PSD95 protein: up-regulated
